The text below walks through data of US4272437A, “Antibacterial agents, and 4-thio azetidinone intermediates” (priority 1979, dated 1981).

The subject of experiment [1] is Providencia stuartii A21205. Kind of experiment: MIC, tube dilution, Providencia stuartii (Pr. rettgeri) A21205. Format: cell-based. Conditions: Providencia stuartii, A21205, read-out: Minimum Inhibitory Concentration (M.I.C.). From the text: (§1) Representative compounds of the present invention were subjected to in vitro antibiotic screening against a variety of microorganisms.

The subject of the next experiment is Pr. vulgaris A-9716. The experiment is described as follows: MIC, tube dilution, Proteus vulgaris / Proteus mirabilis A9716. Format: cell-based, Proteus vulgaris (name changed to Proteus mirabilis). Conditions: overnight 37° C.
Excerpt: as §1

Experiment [2] deals with Staph. aureus (Meth-Res) A-15097. The experiment is described as follows: MIC, tube dilution, Staphylococcus aureus A15097 (Meth-Res). Format: cell-based. Conditions: overnight 37° C.
Excerpt: as §1

The subject of a further experiment is Ent. cloacae A-9659. Kind of experiment: MIC, tube dilution, Enterobacter cloacae A9659. Format: cell-based. Conditions: overnight 37° C.
Excerpt: as §1

Experiment [3] deals with Staph. aureus A-9537 and 50% serum. The experiment is described as follows: MIC, tube dilution, Staph. aureus A9537 + 50% serum. Conditions: overnight 37° C. It counts as cell-based, Staphylococcus aureus.
Excerpt: as §1

In the next experiment the test system is Staph. aureus A-9537. Kind of experiment: MIC, tube dilution, Staphylococcus aureus A9537. Particulars: overnight 37° C., Nutrient Broth. It counts as cell-based.
Excerpt: as §1

A further experiment has as its system S. aureus A9537. The experiment is described as follows: In vivo protection of mice, lethal infection with S. aureus A9537. Conditions: Staphylococcus aureus, A9537, im, read-out: PD50. The protocol: Representative compounds of the present invention were also tested in vivo in mice and their PD50 (dose of compound in mg/kg required to protect 50% of the treated mice against an otherwise lethal infection of a micro-organism) values determined with respect to the test organisms shown below.

In a further experiment the test system is Pr. mirabilis A-9900. The experiment is described as follows: MIC, tube dilution, Proteus mirabilis A9900. Format: cell-based. Conditions: overnight 37° C.
Excerpt: as §1

The subject of another experiment is E. coli A-15119. The experiment is described as follows: MIC, tube dilution, Escherichia coli A15119. Format: cell-based. Conditions: overnight 37° C.
Excerpt: as §1

In another experiment the test system is Pr. morganii A-15153. Kind of experiment: MIC, tube dilution, Proteus morganii A15153. Format: cell-based. Particulars: overnight 37° C.
Excerpt: as §1

Experiment [4] concerns Klebsiella species A20468. Kind of experiment: MIC, tube dilution, Klebsiella species A20468. It counts as cell-based. Particulars: Klebsiella species (K. pneumoniae) A20468, overnight 37° C.
Excerpt: as §1

For a further experiment, the system named is Str. faecalis A-20688. The experiment is described as follows: MIC, tube dilution, Streptococcus faecalis A20688. It counts as cell-based. Particulars: overnight 37° C.
Excerpt: as §1

The subject of the next experiment is K. pneumoniae A-15130. The experiment is described as follows: MIC, tube dilution, Klebsiella pneumoniae A15130. It counts as cell-based. Conditions: overnight 37° C.
Excerpt: as §1

A further experiment deals with E. coli A-20341-1. Kind of experiment: MIC, tube dilution, Escherichia coli A20341-1. Format: cell-based. Conditions: E. coli A20341-1, overnight 37° C.
Excerpt: as §1

In the next experiment the test system is Ser. marcescens A-20019. Kind of experiment: MIC, tube dilution, Serratia marcescens A20019. Format: cell-based. Particulars: overnight 37° C.
Excerpt: as §1

Experiment [5] relates to Staph. aureus (Pen-Res) A-9606. Kind of experiment: MIC, tube dilution, Staphylococcus aureus A9606 (Pen-Res). It counts as cell-based. Particulars: overnight 37° C.
Excerpt: as §1

A further experiment relates to Ent. cloacae A-9656. Kind of experiment: MIC, tube dilution, Enterobacter cloacae A9656. Format: cell-based. Particulars: Enterobacter cloacae A9656; overnight 37° C.; read-out: Minimum Inhibitory Concentration (M.I.C.).
Excerpt: as §1

A further experiment relates to Str. pyogenes A-9604. Kind of experiment: MIC, tube dilution, Streptococcus pyogenes A9604. It counts as cell-based. Conditions: Streptococcus pyogenes, A9604, Str. pyogenes A9604; overnight 37° C., Nutrient Broth; read-out: Minimum Inhibitory Concentration (M.I.C.).
Excerpt: as §1

The test system of another experiment is Str. pneumoniae A-9585. The experiment is described as follows: MIC, tube dilution, Streptococcus pneumoniae A9585. Format: cell-based. Particulars: Streptococcus pneumoniae, A9585, Str. pneumoniae A9585; overnight 37° C., Nutrient Broth; read-out: Minimum Inhibitory Concentration (M.I.C.).
Excerpt: as §1

For another experiment, the system named is Ps. aeruginosa A-21213. The experiment is described as follows: MIC, tube dilution, Pseudomonas aeruginosa A21213. Format: cell-based. Particulars: Pseudomonas aeruginosa A21213; overnight 37° C.; read-out: Minimum Inhibitory Concentration (M.I.C.).
Excerpt: as §1

Another experiment concerns Ps. aeruginosa A-9843A. Kind of experiment: MIC, tube dilution, Pseudomonas aeruginosa A9843A. Format: cell-based. Conditions: Pseudomonas aeruginosa, A9843A, read-out: Minimum Inhibitory Concentration (M.I.C.), Pseudomonas aeruginosa A9843A; overnight 37° C.
Excerpt: as §1

Several values for one entry are separate records, joined by “and”; a condition that tells them apart may be missing. Identical values can stand only once.

`O=C([O-])C1=C(Cc2ccccc2)S[C@@H]2CC(=O)N12.[Na+]` [Example 13, Sodium 2-Benzylpenem-3-carboxylate]: in experiment [1], the MIC was 4 µg/mL. Besides, the “Minimum Inhibitory Concentration (M.I.C.)” value was 2 µg/mL in the experiment on Pr. vulgaris A-9716 (Proteus vulgaris / Proteus mirabilis A9716); 63 µg/mL in [2] (Staph. aureus A15097 (Meth-Res)); 63 µg/mL in the experiment with Ent. cloacae A-9659 (Enterobacter cloacae A9659); greater than 63 µg/mL in experiment [3]; “.13 µg/mL” in the experiment with Staph. aureus A-9537 (Staph. aureus A9537); 2 µg/mL in the experiment with Pr. mirabilis A-9900 (Proteus mirabilis A9900). In addition, the “Minimum Inhibitory Concentration (M.I.C.)” value was 4 µg/mL in the experiment with E. coli A-15119 (E. coli A15119); 4 µg/mL in the experiment with Pr. morganii A-15153 (Proteus morganii A15153); 125 µg/mL in experiment [4]; 32 µg/mL in the experiment on Str. faecalis A-20688 (Str. faecalis A20688); 63 µg/mL in the experiment on K. pneumoniae A-15130 (K. pneumoniae A15130); 125 µg/mL with E. coli A-20341-1. The “Minimum Inhibitory Concentration (M.I.C.)” value with Ser. marcescens A-20019 (Serratia marcescens A20019) was 32 µg/mL and 63 µg/mL; in [5] (Staph. aureus A9606 (Pen-Res)), 1 µg/mL. The ED50 with S. aureus A9537 amounted to 12.5 mg/kg.

On to `COC1=C(C(=O)[O-])N2C(=O)C[C@H]2S1.[Na+]` [Preparation 17, Sodium 2-Methoxypenem-3-carboxylate], for which the MIC is greater than 63 µg/mL in experiment [1]; greater than 63 µg/mL in the experiment with Pr. vulgaris A-9716 (Proteus vulgaris, A9716, read-out: Minimum Inhibitory Concentration (M.I.C.), Proteus vulgaris / Proteus mirabilis A9716); greater than 63 µg/mL in [2] (Staphylococcus aureus, read-out: Minimum Inhibitory Concentration (M.I.C.), Staph. aureus A15097 (Meth-Res)); greater than 63 µg/mL in the experiment with Ent. cloacae A-9659 (Enterobacter cloacae, A9659, Enterobacter cloacae A9659, read-out: Minimum Inhibitory Concentration (M.I.C.)); greater than 32 µg/mL in experiment [3] (Staphylococcus aureus, read-out: Minimum Inhibitory Concentration (M.I.C.)); greater than 2 µg/mL in the experiment on Staph. aureus A-9537 (Staphylococcus aureus, A9537, Staph. aureus A9537, read-out: Minimum Inhibitory Concentration (M.I.C.)). In addition, the MIC was greater than 63 µg/mL in the experiment with Pr. mirabilis A-9900 (Proteus mirabilis, A9900, Proteus mirabilis A9900, read-out: Minimum Inhibitory Concentration (M.I.C.)); greater than 63 µg/mL in the experiment with Ent. cloacae A-9656; greater than 63 µg/mL in the experiment on E. coli A-15119 (Escherichia coli, A15119, E. coli A15119, read-out: Minimum Inhibitory Concentration (M.I.C.)); greater than 2 µg/mL in the experiment with Str. pyogenes A-9604; greater than 63 µg/mL in the experiment on Pr. morganii A-15153 (Morganella morganii, A15153, Proteus morganii A15153, read-out: Minimum Inhibitory Concentration (M.I.C.)); greater than 63 µg/mL in [4] (read-out: Minimum Inhibitory Concentration (M.I.C.)). Besides, the MIC in the experiment on Str. faecalis A-20688 (Enterococcus faecalis, A20688, Str. faecalis A20688, read-out: Minimum Inhibitory Concentration (M.I.C.)) is greater than 63 µg/mL; with Str. pneumoniae A-9585, greater than 2 µg/mL; with K. pneumoniae A-15130 (Klebsiella pneumoniae, A15130, K. pneumoniae A15130, read-out: Minimum Inhibitory Concentration (M.I.C.)) it was greater than 63 µg/mL; in the experiment on E. coli A-20341-1 (Escherichia coli, A203411, read-out: Minimum Inhibitory Concentration (M.I.C.)), greater than 63 µg/mL; in the experiment on Ps. aeruginosa A-21213 it was greater than 63 µg/mL; in the experiment with Ser. marcescens A-20019 (Serratia marcescens, A20019, Serratia marcescens A20019, read-out: Minimum Inhibitory Concentration (M.I.C.)), greater than 63 µg/mL. Besides, the MIC in the experiment on Ps. aeruginosa A-9843A is greater than 63 µg/mL; in experiment [5] (Staphylococcus aureus, read-out: Minimum Inhibitory Concentration (M.I.C.), Staph. aureus A9606 (Pen-Res)) it was greater than 63 µg/mL.
